Five compounds from patent US7045152B2, “Treating pulmonary disorders with gaseous agent causing repletion of GSNO” (Duke University, priority 1999, dated 2006) can be followed below.

Common to all, as to type: in vivo, human
Test [1] concerns cystic fibrosis. Description: Inhaled gas / nebulized treatment of patients with cystic fibrosis (Examples IV, IX, XI, XII).
For test [2], the system named is ARDS. Briefly: Inhaled gas treatment of patients with ARDS (Examples II, VI, VII, VIII).
Test [3] deals with asthma. Briefly: Inhaled gas treatment of patients with asthma (Examples III, X). Conditions: Example III; child, status asthmaticus, intubated; 20 ppm in nitrogen.

Molecules are shown by their SMILES.

For the compound `[Na+].[Na+].[O-][N+]([O-])=NO` [Angeli's salt, reference compound], in test [1] (Example XI, 100 mM in 3 cc normal saline nebulized Q 6 hours, over two days, after HNO), the sputum production entry is “decreases in sputum production”.
`CCON=O` [Ethylnitrite]: the PaO2 is on record as 49 mm Hg in test [2] (Example VII, ENO in nitrogen started again (arrow D), from 43); 43 mm Hg in test [2] (Example VII, ENO stopped (arrow C), from 46); 37 millimeters of mercury in test [2] (Example VII, over the following 12 hours on ENO, progressively less responsive); 48 mm Hg in test [2] (Example VII, person, viral pneumonia progressed to ARDS, initial ENO 40 ppm in nitrogen (arrow A), from 39 on 100% oxygen); 40 mm Hg in test [2] (Example VIII, person, ARDS, inhaled 10 ppm in nitrogen for three days, from 50). For the same compound, in test [2] (Example VII, hemodynamically unstable patient, ENO 40 ppm in nitrogen), the blood pressure result is recorded as “stabilized”. Besides, the “GSNO levels in the airway lining fluid” value in test [1] (human, in vivo) is listed as “increase”. The blood gases entry in test [1] (human, in vivo) is “improved”. The pulmonary hemorrhage entry in test [1] (human, in vivo) was “the hemorrhage stops”. Moreover, the state of health result in test [1] (human, in vivo) is on record as “reverts to their normal state of health”.
The compound `CSN=O` [Methylthionitrite] had a PaO2 in test [2] (Example VI, person, AML, ARDS, intubated, 20 parts per million oxygen, from PO2 40 on 100% oxygen) of 70 mm Hg.
`CC(=O)N[C@@H](CS)C(=O)O` [N-acetylcysteine, reference compound] registered a PaO2 in test [2] (Example VII, nebulized N-acetylcysteine added to ENO (arrow B), from 37) of 46 mm Hg.
For `COS(=O)N=O` (centres unmarked) [methylnitrososulfinate], the airway pressures entry in test [3] is on record as “airway pressures decrease”.
